From patent US20230381170A1, “METHOD FOR TREATING ALS/FTD THROUGH DEGRADATION OF RNA REPEAT EXPANSION” (University of Florida Research Foundation, Incorporated, priority 2020, published 2023) come the findings set out here.

The test system of assay [1] is r(G4C2)8. In words: In vitro Chem-CLIP and C-Chem-CLIP. It counts as binding. The conditions noted are these: constant 4 (500 nM), increasing concentrations of competitor. How it is done:
In vitro Chemical Cross-linking and Isolation by Pull-Down (Chem-CLIP) and Competitive Chemical Cross-linking and Isolation by Pull-Down (C-Chem-CLIP): Approximately 10,000 counts of ^32P 5′-end labeled r(G4C2)8 was folded in 1×Folding Buffer at 95° C. for 1 min. After cooling to room temperature, the Chem-CLIP probe at the desired concentrations (5, 10, 100, 500, 1000, 5000, 10000 nM) was added, and the samples were incubated at 37° C. for 18 h. For C-Chem-CLIP studies, the parent compound (10, 100, 500, 1000, 5000, 10000 nM) was incubated with RNA for 1 h before addition of the Chem-CLIP probe (500 nM).
Cross-linked RNAs were clicked to biotin […] azide (10 μL of a 5 mM stock solution in DMSO) by incubating in a solution containing 25 mM HEPES (pH 7.1), 250 mM sodium ascorbate, 10 mM CuSO4, and 50 mM THPTA (tris-hydroxypropyltriazolylmethylamine) for 6 h at 37° C. A 300 μL of streptavidin-agarose beads (Sigma-Aldrich) was washed three times and then resuspended in 1×PBS. An aliquot (20 μL) of the slurry was added to each sample, which was incubated for 1 h at room temperature. The samples were centrifuged and the supernatant containing unbound RNA was transferred to an unused tube. The beads were then washed three times with 1×PBS supplemented with 0.10% (v/v) Tween-20 and centrifuged, with each wash supernatant being added to the tube containing unbound RNA. The amounts of radioactivity in the supernatant and associated with the beads were quantified with a Beckman Coulter LS6500 Liquid Scintillation Counter.

Assay [2] has as its system Poly(GP). Put plainly: poly(GP) in c9ALS iPSC-derived spinal neurons. It counts as cell-based, human. How it is done:
iPSCs were differentiated into spinal neuron cells using a previously the previously described direct induced motor neuron (diMNs) differentiation protocol (58) with modifications. Briefly, iPSCs were plated into Matrigel-coated 100 mm dishes (30-40% confluence). Neuroepithelial induction was performed by replacing the iPSC maintenance medium with Stage 1 medium [47.5% IMDM (Iscove's Modified Dulbecco's Medium) medium, 47.5% F12 medium, 1% NEAA (Non-Essential Amino Acid) (Life Technologies), 2% B27 (Invitrogen), 1% N2, 1% PSA (Penicillin-Streptomycin-Amphotericin), 0.2 μM LDN193189 (Stemgent), 10 μM SB431542 ([…] Technologies) and 3 μM CHIR99021 (Sigma-Aldrich)]. After daily medium changes for 6 days, cells were detached with Accutase and seeded into 6-well plates (1.5×10^6 cells/well) in 3 mL Stage 2 medium. […]
Measuring Poly(GP) Levels by Electrochemiluminescence. […] Protein concentration was measured by Pierce™ BCA Protein Assay Kit.
Levels of poly(GP) were measured using Meso Scale Discovery MSD Gold 96-well Streptavidin SECTOR plates. […] The conjugated antibodies were desalted with 40K Zeba™ Spin Desalting Columns (Thermo Fisher Scientific), and their concentrations were determined by Pierce™ BCA Protein Assay Kit. […]

Structures are written as SMILES.

With `Cc1c2ccncc2c(C)c2c1[nH]c1ccc(OCCOCCOCCNCCOCCOCCOc3ccc4[nH]c5c(C)c6ccncc6c(C)c5c4c3)cc12` [Compound 3], the “C-Chem-CLIP, RNA pulled down by 4” value in assay [1] was “reduced the percentage of RNA pulled down in a dose dependent fashion”.

In the case of `CCOC(=O)C1=C(Nc2ccccc2)S/C(=C\c2ccc(OCCOCCOCCOCCNC(=O)CCC(=O)N(CCOCCOCCOc3ccc4[nH]c5c(C)c6ccncc6c(C)c5c4c3)CCOCCOCCOc3ccc4[nH]c5c(C)c6ccncc6c(C)c5c4c3)c(O)c2)C1=O` [Compound 7], the “abundance of poly(GP)” value in assay [2] is given as “significant (P<0.05) reduction”.
